{"source": "paper PMC7955776", "about": "(Investigational new drugs, 2020)", "origin": "cited, not measured here", "system": "metastatic TNBC", "settings": "in combination with first line docetaxel, metastatic TNBC patients; cited from earlier work"}
{"smiles": "CCC[C@H](N[C@H]1CCc2cc(F)cc(F)c2C1)C(=O)Nc1cn(C(C)(C)CNCC(C)(C)C)cn1", "note": "[PF-03084014]", "values": [{"measurement": "Partial response", "result": 16, "unit": "%"}, {"measurement": "Stable disease", "result": 36, "unit": "%"}]}
